Data on 2 compounds can be found in patent US20200222474A1, “COMPOSITIONS AND METHODS FOR INCREASING PHYTOCHEMICAL BIOAVAILABLITY AND BIOACTIVITY” (North Carolina State University, priority 2017, published 2020).

Data set [1] concerns L. acidophilus NCFM. In words: Plant glycoside uptake and metabolite analysis of L. acidophilus NCFM culture supernatants by UHPLC-DAD-Q-TOF-MS. It is filed as cell-based, Lactobacillus acidophilus. As to the method:
(§1) For initial growth and gene expression studies, L. acidophilus NCFM was propagated three times in semi-defined medium (SDM) supplemented with either 1% or 0,5% (w/v) of the plant glycoside or carbohydrate (Table 1). For the RNA-seq analysis, cells were harvested by centrifugation (3,220×10 min, 25° C.) in the mid-exponential phase (OD600=0.6-0.8) and stored at −80° C. for subsequent RNA isolation. For the mass spectrometry metabolite analyses, 200 μt samples were taken at 0, 3, 6, 9, 12, and 24 hours of growth; cells were removed by centrifugation; and supernatants were stored at −80° C. for further analysis.
Analysis of plant glycoside uptake from L. acidophilus NCFM culture supernatants using mass spectrometry. The supernatants of L. acidophilus NCFM cultures grown on amygdalin, arbutin, esculin or salicin as carbon sources were analyzed during 24 hours by ultra-high performance liquid chromatography-diode array detection-quadruple time of flight mass spectrometry (UHPLC-DAD-Q-TOF-MS). Samples were diluted 1:20 (v/v) with methanol and an injection volume of […] was used. Separation was carried out on an Agilent Poroshell 120 phenyl-hexyl column (2.1×150 mm, 2.7 μm) using the Agilent Infinity 1290 UHPLC system (Agilent Technologies, Santa Clara, Calif., USA) equipped with a UV/vis spectrum diode array detector. Separation was performed at 0.35 mL min-1., 60° C. with a linear gradient consisting of water (A) and acetonitrile (B) both buffered with 20 mM formic acid, starting at 10% B and increased to 100% in 15 min where it was held for 2 min, returned to 10% in 0.1 min and kept for 3 min. MS detection was performed on an Agilent 6550 iFunnel QTOF MS equipped with Agilent Dual Jet Stream electrospray ion source with the drying gas temperature of 160° C. and gas flow of 13 L min^−1, whereas the sheath gas temperature was 300° C. and flow was 16 L min-1. Ionization was conducted in ESI-mode with capillary voltage set to 4000 V and nozzle voltage to 500 V. Mass spectra were recorded as centroid data for m/z 85-1700 in MS mode with an acquisition rate of 10 spectra s^−1. To avoid carry-over, the needle seat was back-flushed for 15 s at 4 mL min-1 with each of: i) isopropanol: 0.2% ammonium hydroxide (w/v) in water (1:1 v/v); ii) acetonitrile with 2% formic acid (w/v); iii) water with 2% formic acid. Data was processed with the Agilent Mass Hunter Qualitative Analysis B.07.00 software package (Agilent Technologies) and molar concentrations were obtained from standard curves of the plant glycosides and their main metabolites. Targeted compound searches were performed using lists of previously identified compounds plus standard chemical modifications.

Data set [2] can be described thus: Solubility in growth experiments (observation). In kind it is physicochemical. To be noted: in growth medium; precluded OD600 nm as growth metric. The method, then:
(§2) The growth of L. acidophilus NCFM was evaluated on twelve chemically diverse, nutritionally relevant and/or therapeutically active PGs 1; Table 1). FIG. 1A provides the structures and common sources of plant glycoside substrates described herein. The compounds that support growth of Lactobacillus acidophilus are in green. RI: β-D-Glcp; R2: Gentiobioside (β-D-Glcp-(1,6)-D-Glcp); R3: Rutinoside (α-L-Rhaf-(1,6)-D-Glcp). The graph in FIG. 1B depicts plant glycoside utilization analyzed by mass spectrometry and the growth as the maximum OD600. Due to the low solubility of polydatin, OD600 cannot be used as a growth metric and utilization of this compound is confirmed by the production of lactate as well as a high utilization level based on the metabolite analysis.

Data set [3] concerns L. acidophilus NCFM. In words: Growth of L. acidophilus NCFM on plant glycosides as single carbon source (OD600). In kind it is cell-based, Lactobacillus acidophilus. Conditions: verified by production of lactate and metabolite analysis. The method, then:
as §1
(§3) Phenotypic growth assays were performed using 1% (v/v) overnight cultures of L. acidophilus strains (Table 2) and other Lactobacillus species (Table 3) grown on SDM supplemented with 1% (w/v) glucose to inoculate 200 μL of SDM supplemented with 1% (w/v) of the examined carbohydrate (0.5% in the case of esculin) in 96-well microplate wells (Corning Costar, Corning, N.Y., USA) in duplicate or triplicate wells, respectively. The microplates were sealed with clear adhesive film, incubated at 37° C. in a Fluostar Optima microplate reader (BMG Labtech, Cary, N.C., USA), and the cell optical density (OD600) was monitored for 30 hours.
as §2

The test system of the next data set is NCK2424 (ΔLBA0726). In words: Phenotypic growth analysis of deletion mutant (phospho-β-glucosidase). It is filed as cell-based, Lactobacillus acidophilus. Conditions: compared with background Δupp strain. The method, then:
as §3
Construction of gene deletion mutants. The L. acidophilus NCFM genes LBA0225 and LBA0726, both encoding P-Bgl of glycoside hydrolase family 1 (GH1) enzymes in addition to the LBA0227 and LBA0725 genes encoding an EIIC and an EIICBA components of two PTS systems, respectively, were deleted using the upp-based counterselectable gene replacement system. Briefly, in-frame deletions were constructed by amplifying 650-750 bp of the up- and downstream flanking regions of the deletion targets with two primer pairs (e.g., LBA0225A/LBA0225B and LBA0225C/LBA0225D; Table 4). The resulting purified products were joined by splicing using overlap extension PCR (SOE-PCR63) and amplified to establish the deletion alleles. The SOE-PCR products, that include flanking restriction enzyme sites, were cloned within the BamHI and SacI/EcoRI sites of the pTRK935 integration vector and transformed into E. coli EC101. […]
(§4) To establish the functional significance of these two loci, single deletions of each PTS EII and P-Bgl gene, and a double deletion of both P-Bgl genes were constructed using the upp-based counter-selectable gene replacement system (Table 2) and the growth phenotypes of the mutant strains were analyzed (FIG. 3). […]

A further data set deals with NCK2418 (ΔLBA0227). In words: Phenotypic growth analysis of deletion mutant (PTS EIIC). To be noted: compared with background Δupp strain. It is filed as cell-based, Lactobacillus acidophilus. As to the method:
as §3
(§5) Construction of gene deletion mutants. The L. acidophilus NCFM genes LBA0225 and LBA0726, both encoding P-Bgl of glycoside hydrolase family 1 (GH1) enzymes in addition to the LBA0227 and LBA0725 genes encoding an EIIC and an EIICBA components of two PTS systems, respectively, were deleted using the upp-based counterselectable gene replacement system. Briefly, in-frame deletions were constructed by amplifying 650-750 bp of the up- and downstream flanking regions of the deletion targets with two primer pairs (e.g., LBA0225A/LBA0225B and LBA0225C/LBA0225D; Table 4). The resulting purified products were joined by splicing using overlap extension PCR (SOE-PCR63) and amplified to establish the deletion alleles. The SOE-PCR products, that include flanking restriction enzyme sites, were cloned within the BamHI and SacI/EcoRI sites of the pTRK935 integration vector and transformed into E. coli EC101. The resulting recombinant plasmids (pTRK1113-6) were confirmed by DNA sequencing and electroporated into L. acidophilus NCK1910 (Table 2) that contains the pTRK669 helper plasmid, and the recovery of the single- and double-crossover recombinants was performed as previously described. Recombinants carrying the new gene deletion alleles were isolated by colony PCR using primer pairs denoted up/down (e.g., LBA0225up/LBA0225down), which anneal to the flanking regions of the amplicons. Sequence integrity and in-frame deletions were verified by DNA sequencing employing the aforementioned primer pairs and primer denoted mid (e.g., LBA0225mid). The mutations were in-frame deletions of 90-96% of the coding regions.
as §4

In a further data set the test system is NCK2422 (ΔLBA0725). In words: Phenotypic growth analysis of deletion mutant (PTS EIICBA). It is filed as cell-based, Lactobacillus acidophilus. As to the method:
as §3, §5
To establish the functional significance of these two loci, single deletions of each PTS EII and P-Bgl gene, and a double deletion of both P-Bgl genes were constructed using the upp-based counter-selectable gene replacement system (Table 2) and the growth phenotypes of the mutant strains were analyzed (FIG. 3). Phenotypic growth analyses of deletion mutants of EII PTS transporters (FIGS. 3A, 3C, 3E, 3G, and 3I) and phospho-β-glucosidase (FIGS. 3B, 3D, 3F, 3H, and 3J) on the β-glucosides esculin, salicin, amygdalin and the disaccharides gentiobiose and cellobiose. The background Aupp strain is shown as a grey fill graph and the growth of the mutant strains is shown as: PTS EIIC (LBA0227, pink triangle), the phospho-β-glucosidase (LBA0225, light blue triangles), the PTS EIICBA (LBA0725, yellow squares), the second phospho-β-glucosidase (LBA0726, lilac squares) and the double phospho-β-glucosidase mutant (LBA0225/LBA0726, black stars). The color scheme is consistent with that used for the gene loci in FIG. 2.

For `OC[C@H]1O[C@@H](Oc2cc(O)cc(/C=C/c3ccc(O)cc3)c2)[C@H](O)[C@@H](O)[C@@H]1O` [Polydatin], the “aglycone / main metabolite identified in culture supernatant” value in the data set with L. acidophilus NCFM [1] (L. acidophilus NCFM growing on the glycoside, up to 24 h) is given as “resveratrol”. Moreover, in the data set with L. acidophilus NCFM [1] (growth concentration 0.5% (w/v), qualitative: depletion of the plant glycoside and/or appearance of its metabolites), the “Catabolism based on MS” value is “Yes”. For the same compound, the solubility result in data set [2] is “poor solubility”. Further, the “growth on compound (OD600 not usable)” value in the data set with L. acidophilus NCFM [3] is “verified by production of lactate and metabolite analysis”.

On to gentiobiose [reference compound], for which the “growth of the ΔLBA0726 mutant (P-Bgl)” value in the data set on NCK2424 (ΔLBA0726) is “unaffected”. The “growth of the ΔLBA0227 mutant (inactive EIIC)” value in the data set with NCK2418 (ΔLBA0227) was “abolished”. For the same compound, the “reduction of growth on inactivation of the EIICBA (LBA0725)” value in the data set on NCK2422 (ΔLBA0725) was “about 50%”. Also, the “growth of the ΔLBA0725 mutant (inactive PTS EIICBA)” value in the data set with NCK2422 (ΔLBA0725) (compared with background Δupp strain) is recorded as “moderately reduced”.
